Data: ChEMBL document CHEMBL5465560, “Selectivity Literature for EUbOPEN Chemogenomic Library” (2024)
One block for each compound: values may come before it.

Columns and labels:
[1] = target: Hepatocyte growth factor-like protein (Homo sapiens) (UniProt P26927); test: Selectivity interaction (Kinase panel (Eurofins)) EUB0001564a MST1; settings: at 1 µM
[2] = target: Casein kinase I isoform epsilon (Homo sapiens, UniProt P49674); test: Selectivity interaction (Ambit KINOMEscan and KiNATiv profiling in Jurkat cells) EUB0000090b CSNK1E; assay type: cell-based; settings: at 1 µM
[3] = target: SRSF protein kinase 2 (Homo sapiens) (UniProt P78362); test: Selectivity interaction (KinomeScan (DiscoverX)) EUB0000607a SRPK2; settings: at 10 µM
[4] = target: T1, Tyrosine-protein kinase JAK3 (Homo sapiens) (UniProt P52333); test: Selectivity interaction (KinomeScan (DiscoverX)) EUB0000607a JAK3; settings: at 10 µM
T1 sequence (whole entry): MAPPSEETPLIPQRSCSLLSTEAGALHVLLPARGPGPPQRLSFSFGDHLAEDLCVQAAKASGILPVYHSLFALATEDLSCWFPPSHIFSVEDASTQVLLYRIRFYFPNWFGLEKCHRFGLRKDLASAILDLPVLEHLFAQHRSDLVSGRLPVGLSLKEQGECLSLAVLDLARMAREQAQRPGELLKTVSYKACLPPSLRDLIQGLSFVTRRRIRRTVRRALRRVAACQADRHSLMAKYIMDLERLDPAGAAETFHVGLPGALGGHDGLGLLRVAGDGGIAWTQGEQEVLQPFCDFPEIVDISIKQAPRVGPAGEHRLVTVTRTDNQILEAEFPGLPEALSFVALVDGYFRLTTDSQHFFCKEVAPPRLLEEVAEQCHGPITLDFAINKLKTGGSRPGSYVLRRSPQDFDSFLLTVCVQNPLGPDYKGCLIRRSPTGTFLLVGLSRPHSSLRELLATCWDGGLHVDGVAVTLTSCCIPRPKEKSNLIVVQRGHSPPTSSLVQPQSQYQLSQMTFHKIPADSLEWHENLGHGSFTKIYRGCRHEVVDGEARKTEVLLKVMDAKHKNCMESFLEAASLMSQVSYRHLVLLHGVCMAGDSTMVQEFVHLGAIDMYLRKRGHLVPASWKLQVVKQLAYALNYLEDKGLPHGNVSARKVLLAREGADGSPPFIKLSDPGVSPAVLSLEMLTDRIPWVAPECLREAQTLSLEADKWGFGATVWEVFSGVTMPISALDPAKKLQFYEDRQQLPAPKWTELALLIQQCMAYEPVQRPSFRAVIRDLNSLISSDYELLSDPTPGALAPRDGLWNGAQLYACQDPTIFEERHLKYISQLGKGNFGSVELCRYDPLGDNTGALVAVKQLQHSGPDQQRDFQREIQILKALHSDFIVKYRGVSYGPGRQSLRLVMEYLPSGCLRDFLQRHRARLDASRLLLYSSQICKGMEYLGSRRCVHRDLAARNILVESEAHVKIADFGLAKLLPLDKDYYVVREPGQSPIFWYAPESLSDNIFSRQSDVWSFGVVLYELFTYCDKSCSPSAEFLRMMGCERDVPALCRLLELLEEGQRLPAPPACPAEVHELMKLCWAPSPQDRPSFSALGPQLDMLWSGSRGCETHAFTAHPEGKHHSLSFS

[5] = target: T2, Histone-lysine N-methyltransferase SUV39H1 (Homo sapiens) (UniProt O43463); settings: at 1 µM
T2 sequence (whole entry): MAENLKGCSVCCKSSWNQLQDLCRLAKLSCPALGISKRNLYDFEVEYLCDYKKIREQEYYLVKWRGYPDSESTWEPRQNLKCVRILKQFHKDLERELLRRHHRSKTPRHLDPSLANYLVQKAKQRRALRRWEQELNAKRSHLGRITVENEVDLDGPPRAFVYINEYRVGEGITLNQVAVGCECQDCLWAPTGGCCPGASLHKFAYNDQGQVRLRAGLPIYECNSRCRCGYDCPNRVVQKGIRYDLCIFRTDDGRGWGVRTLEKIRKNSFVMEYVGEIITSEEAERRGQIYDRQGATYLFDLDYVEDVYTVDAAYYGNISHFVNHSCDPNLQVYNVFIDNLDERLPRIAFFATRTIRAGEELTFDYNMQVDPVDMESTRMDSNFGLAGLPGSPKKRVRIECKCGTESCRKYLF

[6] = target: T3, Serine/threonine-protein kinase tousled-like 1 (Homo sapiens) (UniProt Q9UKI8); test: Selectivity interaction (ActivX KiNativ screen (kinase selectivity in THP-1 cell lysates)) EUB0000639a TLK1; assay type: subcellular; settings: lysate, at 0.2 µM
T3 sequence (whole entry): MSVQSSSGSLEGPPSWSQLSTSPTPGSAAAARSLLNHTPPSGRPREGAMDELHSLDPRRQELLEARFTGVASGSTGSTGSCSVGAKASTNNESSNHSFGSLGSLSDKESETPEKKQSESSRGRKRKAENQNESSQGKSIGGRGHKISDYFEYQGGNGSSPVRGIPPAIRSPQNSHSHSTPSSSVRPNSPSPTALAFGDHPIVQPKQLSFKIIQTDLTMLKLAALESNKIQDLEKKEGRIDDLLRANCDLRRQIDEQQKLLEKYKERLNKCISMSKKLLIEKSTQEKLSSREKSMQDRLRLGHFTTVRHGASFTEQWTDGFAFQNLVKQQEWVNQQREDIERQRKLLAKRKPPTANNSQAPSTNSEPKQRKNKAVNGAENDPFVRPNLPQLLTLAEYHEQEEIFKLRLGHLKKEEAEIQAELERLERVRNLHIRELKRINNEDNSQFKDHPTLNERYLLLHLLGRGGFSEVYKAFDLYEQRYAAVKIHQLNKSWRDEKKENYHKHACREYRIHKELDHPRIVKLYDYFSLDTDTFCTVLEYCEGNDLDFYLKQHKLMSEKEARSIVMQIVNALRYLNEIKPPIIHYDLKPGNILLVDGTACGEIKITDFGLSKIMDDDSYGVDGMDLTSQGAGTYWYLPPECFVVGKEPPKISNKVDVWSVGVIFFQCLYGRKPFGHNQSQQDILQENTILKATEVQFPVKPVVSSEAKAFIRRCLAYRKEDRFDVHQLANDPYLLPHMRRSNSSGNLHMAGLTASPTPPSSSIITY

[7] = target: Serine/threonine-protein kinase 24 (Homo sapiens) (UniProt Q9Y6E0); test: Selectivity interaction (ActivX KiNativ screen (kinase selectivity in THP-1 cell lysates)) EUB0000639a STK24; assay type: subcellular; settings: lysate, at 0.01 µM
Sequence of Serine/threonine-protein kinase 24 (Homo sapiens) (Q9Y6E0 whole entry, looked up): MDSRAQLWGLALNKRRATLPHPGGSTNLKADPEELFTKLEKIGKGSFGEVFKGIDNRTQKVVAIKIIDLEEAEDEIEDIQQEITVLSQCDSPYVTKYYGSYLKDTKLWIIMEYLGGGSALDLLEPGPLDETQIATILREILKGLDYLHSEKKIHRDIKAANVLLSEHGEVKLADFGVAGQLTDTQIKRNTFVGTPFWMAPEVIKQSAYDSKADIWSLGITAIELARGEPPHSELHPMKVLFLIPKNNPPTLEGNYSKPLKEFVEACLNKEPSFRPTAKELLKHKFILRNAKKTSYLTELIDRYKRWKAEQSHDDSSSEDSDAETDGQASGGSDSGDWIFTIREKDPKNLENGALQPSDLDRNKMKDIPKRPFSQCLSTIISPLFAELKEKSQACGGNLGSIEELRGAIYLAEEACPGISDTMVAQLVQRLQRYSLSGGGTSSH

Sequence of SRSF protein kinase 2 (Homo sapiens) (P78362 whole entry, looked up): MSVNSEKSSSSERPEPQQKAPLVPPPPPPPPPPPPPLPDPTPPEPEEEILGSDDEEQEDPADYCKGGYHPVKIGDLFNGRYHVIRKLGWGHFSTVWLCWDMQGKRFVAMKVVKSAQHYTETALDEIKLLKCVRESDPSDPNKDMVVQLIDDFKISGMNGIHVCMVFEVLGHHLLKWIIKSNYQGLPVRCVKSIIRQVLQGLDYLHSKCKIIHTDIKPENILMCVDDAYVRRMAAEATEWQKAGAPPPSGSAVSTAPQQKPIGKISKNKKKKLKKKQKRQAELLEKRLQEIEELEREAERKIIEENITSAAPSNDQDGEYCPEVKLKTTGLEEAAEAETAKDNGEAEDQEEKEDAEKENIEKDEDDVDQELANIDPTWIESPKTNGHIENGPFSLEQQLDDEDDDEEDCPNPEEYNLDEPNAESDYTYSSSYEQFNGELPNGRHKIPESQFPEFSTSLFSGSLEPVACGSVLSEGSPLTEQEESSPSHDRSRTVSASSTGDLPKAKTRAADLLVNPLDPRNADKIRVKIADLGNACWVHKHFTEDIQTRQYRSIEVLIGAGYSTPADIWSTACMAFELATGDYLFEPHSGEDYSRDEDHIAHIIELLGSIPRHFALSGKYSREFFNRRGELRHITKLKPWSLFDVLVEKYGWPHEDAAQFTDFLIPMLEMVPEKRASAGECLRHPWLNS
Sequence of Casein kinase I isoform epsilon (P49674 whole entry, looked up, canonical isoform): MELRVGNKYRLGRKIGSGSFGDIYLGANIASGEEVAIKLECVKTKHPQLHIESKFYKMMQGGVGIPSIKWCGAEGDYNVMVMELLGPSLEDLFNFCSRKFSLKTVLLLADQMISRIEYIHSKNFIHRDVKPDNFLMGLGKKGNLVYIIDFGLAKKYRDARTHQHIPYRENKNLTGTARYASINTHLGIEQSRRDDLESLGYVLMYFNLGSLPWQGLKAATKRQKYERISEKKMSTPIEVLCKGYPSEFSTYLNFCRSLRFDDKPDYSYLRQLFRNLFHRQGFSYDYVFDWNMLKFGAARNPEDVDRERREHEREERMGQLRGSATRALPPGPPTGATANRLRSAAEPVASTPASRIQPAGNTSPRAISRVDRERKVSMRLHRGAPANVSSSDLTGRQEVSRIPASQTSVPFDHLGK

SMILES: CC[C@@H](Nc1c(C#N)c(-c2ccc(-c3cccc(C)c3F)cc2)nc2cnccc12)C(=O)O [BAY-091]
% of inhibition [1]: 20.6%

SMILES: CN(C)C/C=C/C(=O)Nc1ccc(C(=O)N2CCCC(Nc3ncc(Cl)c(-c4c[nH]c5ccccc45)n3)C2)cc1 (configuration not stated)
% of control [2]: 80%

SMILES: CNC(=O)Nc1ccc(-c2nc(N3CC4CCC(C3)O4)c3cnn(C4CCC5(CC4)OCCO5)c3n2)cc1
% of control [3]: 90%
% of control [4]: 90%

Next, values leading:

% activity [5]: > 90%
SMILES: CNCCN1CCC(c2cc(CN(C)C(=O)c3cccc(Oc4ccccc4)c3)ccn2)CC1

% of inhibition [6]: 9.2%
% of inhibition [7]: 3.8%
SMILES: CC[C@@H]1[C@H](F)C(=O)N[C@@H]1COc1nccc2cc(C(N)=O)c(OC)cc12 [ZIMLOVISERTIB]
